Key:
PPARα = biological target: T1, PPARα (Homo sapiens, UniProt Q07869); experiment: PPAR agonist activity in human cell lines expressing the three PPAR isotypes; assay type: cell-based
T1 sequence (Q07869 1-468): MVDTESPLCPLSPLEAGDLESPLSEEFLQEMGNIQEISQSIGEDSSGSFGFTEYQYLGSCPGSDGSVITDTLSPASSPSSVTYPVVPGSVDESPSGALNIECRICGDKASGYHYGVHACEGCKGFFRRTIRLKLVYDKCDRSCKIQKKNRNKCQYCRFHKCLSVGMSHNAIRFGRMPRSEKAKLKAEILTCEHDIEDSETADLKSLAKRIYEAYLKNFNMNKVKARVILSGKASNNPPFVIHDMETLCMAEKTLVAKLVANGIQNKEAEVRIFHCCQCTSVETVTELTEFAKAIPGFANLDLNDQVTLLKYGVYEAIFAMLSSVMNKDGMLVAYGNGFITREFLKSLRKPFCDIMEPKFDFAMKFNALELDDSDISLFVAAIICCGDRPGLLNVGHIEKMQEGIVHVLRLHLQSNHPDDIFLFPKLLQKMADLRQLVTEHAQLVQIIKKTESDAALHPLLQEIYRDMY
Protocol: (§1) Compound I is a PPARS agonist that is useful in the methods of treatment described herein. In human cell lines expressing the three peroxisome proliferator-activated receptor (PPAR) isotypes, Compound I is a potent (EC50<100 nM) and selective human PPARS agonist (PPARα (EC50>10 μM) and PPARγ (EC50>10 μM)).

PPARγ = biological target: T2, PPARγ (Homo sapiens, UniProt P37231); experiment: as above; assay type: cell-based
T2 sequence (P37231 1-505): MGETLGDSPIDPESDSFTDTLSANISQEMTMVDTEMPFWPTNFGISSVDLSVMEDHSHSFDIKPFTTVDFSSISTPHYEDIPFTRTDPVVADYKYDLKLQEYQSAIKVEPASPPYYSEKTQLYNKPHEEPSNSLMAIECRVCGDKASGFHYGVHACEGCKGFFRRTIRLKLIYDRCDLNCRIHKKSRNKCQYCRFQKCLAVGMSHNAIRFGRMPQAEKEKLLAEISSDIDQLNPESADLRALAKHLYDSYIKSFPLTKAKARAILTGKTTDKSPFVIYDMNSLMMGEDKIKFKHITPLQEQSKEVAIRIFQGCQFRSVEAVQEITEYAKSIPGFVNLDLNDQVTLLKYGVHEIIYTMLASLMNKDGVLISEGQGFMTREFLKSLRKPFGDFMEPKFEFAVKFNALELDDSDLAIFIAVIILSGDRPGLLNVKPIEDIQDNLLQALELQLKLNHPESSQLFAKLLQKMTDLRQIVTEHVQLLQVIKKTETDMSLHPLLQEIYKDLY
Protocol: as §1

PPARδ = biological target: T3, PPARδ (Homo sapiens, UniProt Q03181); experiment: as above; assay type: cell-based
T3 sequence (Q03181 1-441): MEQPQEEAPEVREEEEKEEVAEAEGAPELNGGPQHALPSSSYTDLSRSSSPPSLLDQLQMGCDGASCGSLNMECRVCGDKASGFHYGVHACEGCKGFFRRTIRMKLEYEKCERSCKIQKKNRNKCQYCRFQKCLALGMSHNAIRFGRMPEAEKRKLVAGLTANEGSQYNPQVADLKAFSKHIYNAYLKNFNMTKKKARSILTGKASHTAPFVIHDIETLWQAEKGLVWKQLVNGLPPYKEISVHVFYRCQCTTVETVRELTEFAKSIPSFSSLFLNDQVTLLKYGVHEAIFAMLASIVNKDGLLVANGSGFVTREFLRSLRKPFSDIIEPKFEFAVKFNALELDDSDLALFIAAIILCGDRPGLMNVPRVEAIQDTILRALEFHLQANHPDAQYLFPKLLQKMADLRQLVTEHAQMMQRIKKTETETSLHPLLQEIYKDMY
Protocol: as §1

RXR = experiment: Nuclear receptor activation in human cells expressing the receptor; assay type: cell-based
FXR = biological target: T4, FXR (Homo sapiens, UniProt Q96RI1); experiment: as above; assay type: cell-based
T4 sequence (Q96RI1 1-486): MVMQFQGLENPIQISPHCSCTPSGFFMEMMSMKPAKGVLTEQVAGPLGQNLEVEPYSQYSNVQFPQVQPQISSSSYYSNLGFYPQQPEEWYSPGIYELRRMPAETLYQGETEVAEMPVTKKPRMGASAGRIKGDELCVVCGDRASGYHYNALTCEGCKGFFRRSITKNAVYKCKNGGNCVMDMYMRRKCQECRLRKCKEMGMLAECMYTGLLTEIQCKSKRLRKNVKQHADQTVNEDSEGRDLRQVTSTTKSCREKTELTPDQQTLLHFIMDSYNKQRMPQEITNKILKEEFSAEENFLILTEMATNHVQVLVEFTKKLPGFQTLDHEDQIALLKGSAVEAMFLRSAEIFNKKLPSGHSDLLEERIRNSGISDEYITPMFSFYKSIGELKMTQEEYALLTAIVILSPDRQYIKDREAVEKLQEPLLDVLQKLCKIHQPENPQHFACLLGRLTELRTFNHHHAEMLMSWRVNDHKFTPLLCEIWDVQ

LXRα = biological target: T5, LXRα (Homo sapiens, UniProt Q13133); experiment: as above; assay type: cell-based
T5 sequence (Q13133 1-447): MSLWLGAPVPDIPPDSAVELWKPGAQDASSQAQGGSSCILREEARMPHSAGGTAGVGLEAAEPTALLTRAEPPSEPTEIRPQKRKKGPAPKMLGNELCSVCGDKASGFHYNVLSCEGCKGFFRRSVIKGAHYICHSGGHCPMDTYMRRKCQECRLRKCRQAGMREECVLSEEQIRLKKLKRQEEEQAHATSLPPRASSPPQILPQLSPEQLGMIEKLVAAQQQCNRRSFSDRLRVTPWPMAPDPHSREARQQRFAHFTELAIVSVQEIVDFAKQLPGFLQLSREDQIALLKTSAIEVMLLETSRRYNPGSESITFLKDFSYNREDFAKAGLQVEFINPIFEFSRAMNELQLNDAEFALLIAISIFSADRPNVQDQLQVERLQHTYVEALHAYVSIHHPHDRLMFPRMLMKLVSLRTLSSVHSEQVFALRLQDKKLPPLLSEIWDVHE

LXRP = biological target: T6, LXRP (Homo sapiens, UniProt P55055); experiment: as above; assay type: cell-based
T6 sequence (P55055 1-460): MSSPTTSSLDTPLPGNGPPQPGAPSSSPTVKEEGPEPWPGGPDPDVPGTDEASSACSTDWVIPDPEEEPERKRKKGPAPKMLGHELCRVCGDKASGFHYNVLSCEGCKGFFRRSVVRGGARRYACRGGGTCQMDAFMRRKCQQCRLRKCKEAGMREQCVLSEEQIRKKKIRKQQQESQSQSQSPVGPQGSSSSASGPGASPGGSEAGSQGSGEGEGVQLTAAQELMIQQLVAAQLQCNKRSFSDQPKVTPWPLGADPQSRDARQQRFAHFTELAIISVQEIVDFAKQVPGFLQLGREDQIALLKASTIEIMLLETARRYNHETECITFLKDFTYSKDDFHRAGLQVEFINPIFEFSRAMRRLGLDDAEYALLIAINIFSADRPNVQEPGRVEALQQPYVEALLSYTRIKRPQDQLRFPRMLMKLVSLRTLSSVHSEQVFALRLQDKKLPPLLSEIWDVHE

[1] = system: PPARS regulated genes (CPT1b, PGC-1α) in mice muscle; experiment: In vivo expression of PPARδ regulated genes in mice muscle
[2] = system: Angiopoietin-like 4 (ANGPTL4); experiment: In vivo expression of PPAR target gene in rat muscle
[3] = human cell lines expressing the PPAR isotypes

type of agonism at PPARα (PPARα): partial agonist
EC50 (PPARα; [3]): > 10 µM
type of agonism at PPARγ (PPARγ): partial agonist
EC50 (PPARγ; [3]): > 10 µM
type of agonism at PPARδ (PPARδ): full PPARS agonist
EC50 (PPARδ; [3]): < 0.1 µM
activation of nuclear receptor FXR (FXR): has not resulted in activation
activation of nuclear receptor LXRα (LXRα): has not resulted in activation
activation of nuclear receptor LXRP (LXRP): has not resulted in activation
Compound: Cc1cc(OC/C=C(/c2ccc(F)cc2)c2ccc(C#CCN3CCOCC3)cc2)ccc1OCC(=O)O [Compound I, (E)-2-(4-((3-(4-fluorophenyl)-3-(4-(3-morpholinoprop-1-yn-1-yl)phenyl)allyl)oxy)-2-methylphenoxy)acetic acid]
activation of nuclear receptor RXR (RXR): has not resulted in activation
expression of PPARδ regulated genes (CPT1b, PGC-1α) [1]: altered the expression patterns
expression of Angiopoietin-like 4 (ANGPTL4) [2]: increased the expression

— patent publication US11267795B2, “Crystalline PPAR-delta agonist” (Reneo Pharmaceuticals, Inc., priority 2020, dated 2022)
